Reference: US20240287138A1, “CYCLIC PEPTIDES FOR INHIBITING TNF RECEPTOR 1 ACTIVITY” (Merck Sharp & Dohme LLC, priority 2023, published 2024)
Where two headings read alike, the source gives them in different places. Numbered stars: 1 amine (or outer) side, 2 acyl side, 3 side chain; on linkers, the order of the positions; unused ones are H or OH. Square brackets hold non-standard residues; d marks the D form. Peptide text beside a SMILES is read from it. * marks the point of attachment. Trp(βS-Me,7-OMe) = COc1cccc2c([C@H](C)[C@H](N)C(=O)O)c[nH]c12; Trp(1-CH2COOH) = N[C@@H](Cc1cn(CC(=O)O)c2ccccc12)C(=O)O; Phe(4-SO2NH2) = N[C@@H](Cc1ccc(S(N)(=O)=O)cc1)C(=O)O; Phe(2-F,4-COOH) = N[C@@H](Cc1ccc(C(=O)O)cc1F)C(=O)O; Trp(7-CN) = N#Cc1cccc2c(C[C@H](N)C(=O)O)c[nH]c12; Trp(7-Cl) = N[C@@H](Cc1c[nH]c2c(Cl)cccc12)C(=O)O; Phe(3-CONH2) = NC(=O)c1cccc(C[C@H](N)C(=O)O)c1; Phe(4-CONH2) = NC(=O)c1ccc(C[C@H](N)C(=O)O)cc1; Phe(4-COOH) = N[C@@H](Cc1ccc(C(=O)O)cc1)C(=O)O; dPro(4S-NH2) = N[C@@H]1CN[C@@H](C(=O)O)C1; Pip(5R-OH) = O=C(O)[C@@H]1CC[C@@H](O)CN1; X1 = O=C([C@@H]1CC[C@H](N[*:1])C1)[*:2]; Pip(4-aza) = O=C(O)[C@@H]1CNCCN1; 4Pal = N[C@@H](Cc1ccncc1)C(=O)O; NMeE = CN[C@@H](CCC(=O)O)C(=O)O; dHyp = O=C(O)[C@H]1C[C@H](O)CN1; Cit = NC(=O)NCCC[C@H](N)C(=O)O; Gly(N-CH2CH2OH) = O=C(O)CNCCO; Pip = O=C(O)[C@@H]1CCCCN1; αMeS = C[C@](N)(CO)C(=O)O; Carboxymethyl = O=C(O)C*; Nle = CCCC[C@H](N)C(=O)O; Sar = CNCC(=O)O

How the values were obtained:
[1] = biological target: T1, TNFα-induced NF-κB signal transduction pathway (TNFR1 signaling) in THP-1 cells (Homo sapiens, UniProt P19438); assay: THP-1 Lucia NF-κB reporter cell assay, inhibition of TNFα-induced NF-κB signaling; assay type: cell-based; conditions: THP-1 NF-κB Lucia reporter cells, 10 ng/mL TNFα, 16-18 h, secreted luciferase; read-out: THP-1 IC50
T1 sequence (P19438 30-455): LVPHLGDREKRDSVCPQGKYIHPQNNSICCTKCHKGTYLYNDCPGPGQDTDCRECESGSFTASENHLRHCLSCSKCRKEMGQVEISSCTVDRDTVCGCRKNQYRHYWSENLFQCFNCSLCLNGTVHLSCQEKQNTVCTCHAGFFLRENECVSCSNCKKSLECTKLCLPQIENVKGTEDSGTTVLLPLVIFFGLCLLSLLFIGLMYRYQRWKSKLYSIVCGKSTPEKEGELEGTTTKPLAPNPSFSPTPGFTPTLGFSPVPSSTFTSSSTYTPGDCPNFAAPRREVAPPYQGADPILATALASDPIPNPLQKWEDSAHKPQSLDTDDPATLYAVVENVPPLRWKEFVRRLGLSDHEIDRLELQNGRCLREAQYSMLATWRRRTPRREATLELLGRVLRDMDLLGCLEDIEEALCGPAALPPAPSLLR
Summary of the method: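 Inhibition of TNFR1-driven NF-κB activation was measured as luminescence of secreted reporter luciferase following overnight (16-18 h) stimulation with 10 ng/mL TNFα.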

[2] = biological target: T2, human TNFR2 ECD protein (Homo sapiens, UniProt P20333); assay: SPR off-target binding (selectivity) to human TNFR2 ECD
T2 construct: HRV 3C protease cleavage site (C); 6His (C, cleaved yes); made in house; host or cells: Sf21 insect cells (baculovirus), secreted
T2 sequence (P20333 23-257): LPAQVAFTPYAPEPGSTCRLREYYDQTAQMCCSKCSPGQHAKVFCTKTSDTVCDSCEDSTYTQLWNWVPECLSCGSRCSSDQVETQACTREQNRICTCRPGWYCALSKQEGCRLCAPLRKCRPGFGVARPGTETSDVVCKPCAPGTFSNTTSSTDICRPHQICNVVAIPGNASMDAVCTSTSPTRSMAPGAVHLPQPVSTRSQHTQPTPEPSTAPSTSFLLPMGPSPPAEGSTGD
Summary of the method: (§1)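 Biotinylated avi-tagged human TNFR1 or TNFR2 ECD, expressed in Sf21 insect cells, captured on streptavidin SPR chip; peptide analytes run in 10 mM HEPES pH 7.4, 150 mM NaCl, 3 mM EDTA, 0.05% P20, 2% DMSO. kon and koff measured, affinity KA calculated.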

[3] = biological target: T3, human TNFR1 extracellular domain (ECD) protein (Homo sapiens, UniProt P19438); assay: SPR binding affinity to captured human TNFR1 ECD
T3 construct: HRV 3C protease cleavage site (C); 6His (C, cleaved yes); made in house; host or cells: Sf21 insect cells (baculovirus), secreted
T3 sequence (P19438 30-211): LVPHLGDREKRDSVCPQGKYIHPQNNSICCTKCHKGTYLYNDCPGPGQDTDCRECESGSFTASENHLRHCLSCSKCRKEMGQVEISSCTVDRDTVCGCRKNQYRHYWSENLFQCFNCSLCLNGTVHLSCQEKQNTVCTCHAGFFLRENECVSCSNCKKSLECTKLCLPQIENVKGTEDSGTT
Summary of the method: as §1

[4] = biotinylated human TNFR2 ECD on streptavidin chip, read-out: SPR hTNFR2 KD
[5] = biotinylated human TNFR1 ECD on streptavidin chip, from kon and koff, read-out: SPR hTNFR1 KD

| SMILES | IC50 [1] | Kd [2] | Kd [3] | Kd [2, 4] | Kd [3, 5] |
| --- | --- | --- | --- | --- | --- |
| COc1cccc2c([C@H](C)[C@@H]3NC(=O)CN(C)C(=O)[C@H](Cc4cccc(C(N)=O)c4)NC(=O)[C@H](Cc4ccc(C(=O)O)cc4)NC(=O)[C@](C)(CO)NC(=O)[C@H](Cc4c[nH]c5c(Cl)cccc45)NC(=O)[C@H](Cc4ccncc4)NC(=O)[C@H](CC(N)=O)NC(=O)[C@H]4C[C@H](O)CN4C(=O)[C@H](Cc4c[nH]c5ccccc45)NC(=O)[C@@H]4CC[C@@H](O)CN4C(=O)[C@H](Cc4ccncc4)NC(=O)[C@H](CCCNC(N)=O)NC(=O)[C@@H]4CC[C@@H](C4)NC3=O)c[nH]c12 [SEQ ID NO. 54] (cyclo([4Pal][Trp(7-Cl)][αMeS][Phe(4-COOH)][Phe(3-CONH2)][Sar][Trp(βS-Me,7-OMe)][X1][Cit][4Pal][Pip(5R-OH)]W[dHyp]N)) | 1.8 nM | > 1000 nM | 0.07 nM | – | – |
| CCCC[C@@H]1NC(=O)[C@@H]2CC[C@@H](C2)NC(=O)[C@H]([C@@H](C)c2c[nH]c3c(OC)cccc23)NC(=O)CN(C)C(=O)[C@H](Cc2ccc(O)cc2)NC(=O)[C@H](Cc2ccc(C(=O)O)cc2)NC(=O)[C@](C)(CO)NC(=O)[C@H](Cc2c[nH]c3c(Cl)cccc23)NC(=O)[C@H](Cc2ccncc2)NC(=O)[C@H](CC(N)=O)NC(=O)CN(CCO)C(=O)[C@H](Cc2c[nH]c3ccccc23)NC(=O)[C@@H]2CNCCN2C(=O)[C@H](Cc2ccncc2)NC1=O [SEQ ID NO. 72] (cyclo([4Pal][Trp(7-Cl)][αMeS][Phe(4-COOH)]Y[Sar][Trp(βS-Me,7-OMe)][X1][Nle][4Pal][Pip(4-aza)]W[Gly(N-CH2CH2OH)]N)) | 0.8 nM | > 1000 nM | 0.05 nM | – | – |
| CCCC[C@@H]1NC(=O)[C@@H]2CC[C@@H](C2)NC(=O)[C@H]([C@@H](C)c2c[nH]c3c(OC)cccc23)NC(=O)CN(C)C(=O)[C@H](Cc2ccc(C(=O)O)cc2F)NC(=O)[C@H](Cc2ccc(C(N)=O)cc2)NC(=O)[C@](C)(CO)NC(=O)[C@H](Cc2c[nH]c3c(Cl)cccc23)NC(=O)[C@H](Cc2ccc(C(=O)O)cc2F)NC(=O)[C@H](CC(N)=O)NC(=O)[C@H]2C[C@H](O)CN2C(=O)[C@H](Cc2c[nH]c3ccccc23)NC(=O)[C@@H]2CC[C@@H](O)CN2C(=O)[C@H](Cc2ccncc2)NC1=O [SEQ ID NO. 41] (cyclo([4Pal][Pip(5R-OH)]W[dHyp]N[Phe(2-F,4-COOH)][Trp(7-Cl)][αMeS][Phe(4-CONH2)][Phe(2-F,4-COOH)][Sar][Trp(βS-Me,7-OMe)][X1][Nle])) | 0.6 nM | > 1000 nM | 0.12 nM | – | – |
| CCCC[C@@H]1NC(=O)[C@@H]2CC[C@@H](C2)NC(=O)[C@H]([C@@H](C)c2c[nH]c3c(OC)cccc23)NC(=O)CN(C)C(=O)[C@H](Cc2ccc(OCC(=O)O)cc2)NC(=O)[C@H](Cc2ccc(S(N)(=O)=O)cc2)NC(=O)[C@](C)(CO)NC(=O)[C@H](Cc2c[nH]c3c(C#N)cccc23)NC(=O)[C@H](Cc2ccc(OCC(=O)O)cc2)NC(=O)[C@H](CC(N)=O)NC(=O)[C@H]2C[C@H](N)CN2C(=O)[C@H](Cc2cn(CC(=O)O)c3ccccc23)NC(=O)[C@@H]2CC[C@@H](O)CN2C(=O)[C@H](Cc2ccncc2)NC1=O [SEQ ID NO. 18] (cyclo([4Pal][Pip(5R-OH)][Trp(1-CH2COOH)][dPro(4S-NH2)]NY(Carboxymethyl)[Trp(7-CN)][αMeS][Phe(4-SO2NH2)]Y(Carboxymethyl)[Sar][Trp(βS-Me,7-OMe)][X1][Nle])) | 0.6 nM | – | – | > 1000 nM | 0.05 nM |
| CCCC[C@@H]1NC(=O)[C@@H]2CC[C@@H](C2)NC(=O)[C@H]([C@@H](C)c2c[nH]c3c(OC)cccc23)NC(=O)CN(C)C(=O)[C@H](Cc2cccc(C(N)=O)c2)NC(=O)[C@H](Cc2ccc(C(=O)O)cc2)NC(=O)[C@](C)(CO)NC(=O)[C@H](Cc2c[nH]c3c(Cl)cccc23)NC(=O)[C@H](Cc2ccncc2)NC(=O)[C@H](CC(N)=O)NC(=O)[C@H](CCC(=O)O)N(C)C(=O)[C@H](Cc2c[nH]c3ccccc23)NC(=O)[C@@H]2CCCCN2C(=O)[C@H](Cc2ccncc2)NC1=O [SEQ ID NO. 221] (cyclo([4Pal][Pip]W[NMeE]N[4Pal][Trp(7-Cl)][αMeS][Phe(4-COOH)][Phe(3-CONH2)][Sar][Trp(βS-Me,7-OMe)][X1][Nle])) | 1 nM | – | – | > 1000 nM | 0.14 nM |
